# From patent US10774064B2 (Cadent Therapeutics, Inc., priority 2016, dated 2020)
# Like-named read-outs stand apart in the source and are kept apart here.
# Tests used:
# [1] = test system: harmaline induced tremor; experiment: harmaline induced tremor in rats; type: in vivo, Male Sprague Dawley rats
# Protocol: Immediately following harmaline injection, animals were placed in the tremor quantification apparatus and tremor events were quantified for 60 minutes. A tremor event signal was generated when a small metal transmitter band fitted to the right forepaw of the animal moved within the electromagnetic field generated by a loop antenna within the testing apparatus. Outputs from the amplifier were digitized at a sampling rate of 1,000 Hz and the signal was processed and analyzed using LabView software (National Instruments). To minimize signal from ambulatory and grooming behavior, the signal was filtered with a 128-ms nonweigthed moving average filter, and events with amplitudes >0.5 V and lasting >300 ms in duration were counted as a tremor event. Data were analyzed in one-minute bins over the course of the test and presented as the sum of tremor events over the entire 60 minute test.
# [2] = brain concentration by mass spectrometry from brains harvested after tremor recording; free brain concentration and % SK2 SC100; type: in vivo, Male Sprague Dawley rats; conditions: male, Sprague Dawley, rat, oral, 30 mg/Kg
# Source text: The amount of free compound is then expressed in terms of its potency against the SK2 channel as follows: % SK2 SC100=CFB/SK2 SC100×100, where SK2 SC100 (Table 3, “SK2 SC100”) is the measured value of potency of the compound against SK2 channels and % SK2 SC100 (Table 3, “% SK2 SC100”) is the free brain concentration (CFB) normalized to SK2 SC100. Thus the % SK2 SC100 gives a measure of the degree to which each of the compounds is modulating SK2 channels regardless of differences in potency or exposure. Values are given in […]
# [3] = target: T1, small-conductance Ca2+-activated K+ channels (SK channels, subtype 2) (Homo sapiens, UniProt Q9H2S1); experiment: whole-cell patch-clamp of ionic current through SK2 channels in HEK293 cells (SC100); type: cell-based; conditions: for SC100 (μM): whole-cell patch-clamp; for SC100 (μM) / SC100: HEK293 cells expressing SK2 channels, concentration that increases the basal current by 100%
# T1 construct: expressed in transfected cells; host or cells: HEK293
# In short: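 SC100, the concentration doubling basal current (a 100% increase), was taken from SK2 currents recorded by whole-cell patch-clamp in SK2-expressing HEK293 cells.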
SC100 (μM) [3],Compound,other results
–,"Cc1ccn(-c2nc(NC3CCC(F)(F)CC3)cc(N3CCOCC3)n2)n1 [Compound 359, N-(4,4-difluorocyclohexyl)-2-(3-methyl-1H-pyrazol-1-yl)-6-morpholinopyrimidin-4-amine]","inhibition of tremors (sum of tremor events over 60 minutes) ([1]; 30 mg/Kg oral, 30 minutes prior to harmaline injection, FIG. 1): significant inhibition of tremors; Minimally Efficacious Dose ([1]; oral administration 30 minutes prior to harmaline injection, rats): 30 mg/kg; concentration at 90 min ([2]; CFB=CMB×BFF, read-out: Calculated Free Brain Concentration): 80 nM; concentration at 90 min ([2]; brains harvested immediately following tremor recording, mass spectrometry, at minimally efficacious dose, read-out: Measured Brain Concentration): 1300 nM; Measured SK2 SC100 ([3]; potency against SK2 channels): 0.5 µM"
++ (++ means 200 nM-1000 nM),Cc1ccn(-c2cc(OCc3ncn(C)n3)cc(NC3CCC(F)(F)CC3)n2)n1 [NSSy5641],–
+ (+ means >1 uM),"CNCc1cc(NC2CCC(F)(F)CC2)nc(-c2nc(C)cs2)n1 [IN11059-096-P1, N-(4,4-difluorocyclohexyl)-6-((methylamino)methyl)-2-(4-methylthiazol-2-yl)pyrimidin-4-amine]",–
++ (++ means 200 nM-1000 nM),CC(=O)NC1CCN(c2cc(NC3CCC(F)(F)CC3)nc(-c3nc(C)cs3)n2)CC1 [IN10880-032-P1],–
++ (++ means 200 nM-1000 nM),Cc1csc(-c2nc(NC3CCCC(F)(F)C3)cc(N3CCOCC3)n2)n1 (centres unmarked) [IN10966-028-P1],–
–,"O=C(N1CC(Oc2cc(NC3CCC(F)(F)CC3)nc(-n3ccc(CO)n3)n2)C1)C(F)(F)F [Compound 319, 1-(3-((6-((4,4-difluorocyclohexyl)amino)-2-(3-(hydroxymethyl)-1H-pyrazol-1-yl)pyrimidin-4-yl)oxy)azetidin-1-yl)-2,2,2-trifluoroethan-1-one]",SC100 [3]: + (+ means >1 uM)
+++ (+++ means <200 nM),"CC(=O)N1CC=C(c2cc(NC3CCC(F)(F)CC3)nc(-n3ccc(C4CC4)n3)n2)CC1 [IN11166-038-P1, 1-(4-(2-(3-cyclopropyl-1H-pyrazol-1-yl)-6-((4,4-difluorocyclohexyl)amino)pyrimidin-4-yl)-3,6-dihydropyridin-1(2H)-yl)ethan-1-one]",–
++ (++ means 200 nM-1000 nM),Cc1ccn(-c2nc(NC3CCC(F)(F)CC3)cc(N3CCS(=O)(=O)CC3)n2)n1 [NSSy6111],–
++ (++ means 200 nM-1000 nM),FC1(F)CCC(Nc2cc(OCc3cnco3)nc(-n3ccc(C4CC4)n3)n2)CC1 [IN11166-020-P1],–
+ (+ means >1 uM),Cc1ccn(-c2nc(NC3CCC(F)(F)CC3)cc(OC(C)C)n2)n1 [IN11053-021-P1],–
–,"Cc1cc(C)n(-c2nc(NC3CCC(F)(F)CC3)cc(NC3COC3)n2)n1 [Compound 243, N4-(4,4-difluorocyclohexyl)-2-(3,5-dimethyl-1H-pyrazol-1-yl)-N6-(oxetan-3-yl)pyrimidine-4,6-diamine]",SC100 [3]: + (+ means >1 uM)
+ (+ means >1 uM),Cc1ccn(-c2cc(N3CC4COCC4C3)nc(NC3CCC(F)(F)CC3)n2)n1 (centres unmarked) [NSSy6585],–
–,"Cc1cc(NC2CCC(F)(F)CC2)nc(-n2ccc(C(C)(C)O)n2)n1 [Compound 215, 2-(1-(4-((4,4-difluorocyclohexyl)amino)-6-methylpyrimidin-2-yl)-1H-pyrazol-3-yl)propan-2-ol]",SC100 [3]: + (+ means >1 uM)
++ (++ means 200 nM-1000 nM),Cc1ccn(-c2cc(OCc3cnnn3C)cc(NC3CCC(F)(F)CC3)n2)n1 [NSSy5643],–
++ (++ means 200 nM-1000 nM),Cc1ccn(-c2nc(NC3CCC(F)(F)CC3)cc(N3CC(=O)N(C)C(=O)C3)n2)n1 [IN11288-005-P1],–
–,"Cc1cn(-c2cc(OC3COC3)cc(NC3CCC(F)(F)CC3)n2)nc1CF [Compound 345, N-(4,4-difluorocyclohexyl)-6-(3-(fluoromethyl)-4-methyl-1H-pyrazol-1-yl)-4-(oxetan-3-yloxy)pyridin-2-amine]",SC100 [3]: ++ (++ means 200 nM-1000 nM)
–,"Cc1cc(C)n(-c2cc(N3C[C@H]4C[C@@H]3CN4)nc(NC3CCC(F)(F)CC3)n2)n1 [Compound 104, 4-((1R,4R)-2,5-diazabicyclo[2.2.1]heptan-2-yl)-N-(4,4-difluorocyclohexyl)-6-(3,5-dimethyl-1H-pyrazol-1-yl)pyrimidin-2-amine]",SC100 [3]: ++ (++ means 200 nM-1000 nM)

Compound,SC100 (μM) [3],other results
COCC1CN(c2cc(NC3CCCCC3)nc(-c3nc(C)cs3)n2)CCO1 (centres unmarked) [NSSy6100],++ (++ means 200 nM-1000 nM),–
Cc1csc(-c2cc(N3CCC(C4COC4)CC3)cc(NC3CCC(F)(F)CC3)n2)n1 [NSSy5815],++ (++ means 200 nM-1000 nM),–
